# From patent publication US20160214956A1, “NOVEL SOLUBLE GUANYLATE CYCLASE ACTIVATORS AND THEIR USE” (GLAXOSMITHKLINE INTELLECTUAL PROPERTY DEVELOPMENT LIMITED, priority 2013, published 2016)
# Changes are numbered by the printed parent chain. Structures can show the parent of a compound that is named as a salt.
# Target: T1, human sGC (Homo sapiens, UniProt Q02153)
# T1 sequence (Q02153 1-619): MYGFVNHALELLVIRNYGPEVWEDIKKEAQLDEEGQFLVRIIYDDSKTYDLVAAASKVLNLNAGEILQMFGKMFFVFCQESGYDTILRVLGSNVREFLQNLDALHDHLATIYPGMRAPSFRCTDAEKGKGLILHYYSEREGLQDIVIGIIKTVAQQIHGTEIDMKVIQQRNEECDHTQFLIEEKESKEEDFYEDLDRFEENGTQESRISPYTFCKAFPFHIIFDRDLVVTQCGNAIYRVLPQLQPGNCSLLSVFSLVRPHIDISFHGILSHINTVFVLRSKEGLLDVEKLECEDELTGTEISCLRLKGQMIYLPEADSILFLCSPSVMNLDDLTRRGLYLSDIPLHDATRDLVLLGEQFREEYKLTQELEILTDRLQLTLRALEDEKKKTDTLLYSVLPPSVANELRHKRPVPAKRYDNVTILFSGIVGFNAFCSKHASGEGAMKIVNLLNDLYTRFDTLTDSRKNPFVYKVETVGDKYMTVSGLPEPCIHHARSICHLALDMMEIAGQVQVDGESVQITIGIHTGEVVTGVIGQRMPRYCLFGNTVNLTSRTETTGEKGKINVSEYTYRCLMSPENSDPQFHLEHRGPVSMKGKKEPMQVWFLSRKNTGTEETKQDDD
# T1 sequence (Q02108 1-690 partner): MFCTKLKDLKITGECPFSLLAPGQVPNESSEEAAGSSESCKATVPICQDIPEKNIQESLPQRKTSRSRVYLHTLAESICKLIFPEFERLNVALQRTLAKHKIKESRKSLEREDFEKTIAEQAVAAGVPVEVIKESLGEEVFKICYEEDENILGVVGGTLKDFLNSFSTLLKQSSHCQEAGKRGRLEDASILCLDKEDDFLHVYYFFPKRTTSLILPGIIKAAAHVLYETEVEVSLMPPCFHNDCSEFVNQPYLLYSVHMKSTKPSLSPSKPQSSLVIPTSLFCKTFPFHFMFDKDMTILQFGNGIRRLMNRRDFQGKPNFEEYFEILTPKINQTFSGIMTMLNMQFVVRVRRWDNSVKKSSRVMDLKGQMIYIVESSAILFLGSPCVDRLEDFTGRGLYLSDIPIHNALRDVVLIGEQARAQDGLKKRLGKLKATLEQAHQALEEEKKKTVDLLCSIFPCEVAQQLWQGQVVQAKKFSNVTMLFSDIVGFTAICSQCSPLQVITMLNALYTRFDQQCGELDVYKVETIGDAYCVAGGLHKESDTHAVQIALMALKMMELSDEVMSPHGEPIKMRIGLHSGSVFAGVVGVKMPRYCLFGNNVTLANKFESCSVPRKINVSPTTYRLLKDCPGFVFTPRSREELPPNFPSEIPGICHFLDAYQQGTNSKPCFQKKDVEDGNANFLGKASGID
# Assay: sGC enzyme assay, fluorescence polarisation of labelled cGMP
# Type: biochemical
# Conditions: human sGC 1 nM, FP assay; concentration able to increase by 5-fold basal cGMP
# Procedure: The activity of soluble guanylate cyclase (sGC) was tested in an assay based on measuring the fluorescent polarisation (FP) signal of fluorescently labelled cGMP. FP increased on interaction with an anti-cGMP antibody as the motility of the molecule was reduced. Newly produced cGMP displaced the interaction giving rise to a decrease in polarisation and FP signal which was equated to enzyme activity. Compounds were incubated with human sGC, anti-cGMP antibody, the GTP substrate and fluorescently labelled cGMP. After a period of one hour the assay was stopped with the addition of EDTA and after a further hour the assay was read.
# Human sGC was thawed and resuspended in assay buffer (100 mM TRIS, 10 mM MgCl2, 0.2 mM Tween 20, pH7.4, containing 1:100 dilution of sheep anti-cGMP) to give final concentration of 1 nM in the well. A substrate solution was prepared containing GTP and 8-fluo-cGMP in de-ionized water to a final concentration of 25 μM and 50 nM respectively. Assay plates containing 5 μL of various test compounds and of a standard agonist (50 μM-50 nM) in 1% DMSO as 6 point, four fold dilutions across a 96 well plate were used in the assay. The plate also contained 6 wells of DMSO (1%) to produce high control and a cGMP standard curve (14 nM to 10 μM) to convert FP data to cGMP concentration. 25 μL of enzyme mix and 20 μl of substrate mix described above were added to each well of the plate. Samples were mixed on an orbital shaker and then incubated at room temperature for 1 hour. After this incubation period 5 μl of 0.5M EDTA was added to all wells and the plates were incubated for a further hour at room temperature prior to reading the FP signal in an appropriate reader. For data handling FP data were converted to cGMP concentrations and then fitted using ActivityBase software. The activity of a test compound was determined as the pEC500 value which is the concentration able to increase by 5-fold basal cGMP.
row,sGC pEC500,Compound
1,6.19,"O=C(O)c1cnn(-c2cccc(-c3ccccc3CCc3ccc(OCCCN4CCOCC4)cc3)n2)c1C(F)(F)F [Example 2, 1-(6-(2-(4-(3-morpholinopropoxy)phenethyl)phenyl)pyridin-2-yl)-5-(trifluoromethyl)-1H-pyrazole-4-carboxylic acid]"

# Target: T2, soluble guanylate cyclase (sGC) (Rattus norvegicus, UniProt P20595)
# T2 construct: endogenous in cells; host or cells: primary rat aortic smooth muscle cells
# T2 sequence (P20595 1-619): T1 sequence (Q02153 1-619) with N171S, E205D, N247K, T299A, K615N, D618E, D619N
# T2 sequence (P19686 1-690 partner): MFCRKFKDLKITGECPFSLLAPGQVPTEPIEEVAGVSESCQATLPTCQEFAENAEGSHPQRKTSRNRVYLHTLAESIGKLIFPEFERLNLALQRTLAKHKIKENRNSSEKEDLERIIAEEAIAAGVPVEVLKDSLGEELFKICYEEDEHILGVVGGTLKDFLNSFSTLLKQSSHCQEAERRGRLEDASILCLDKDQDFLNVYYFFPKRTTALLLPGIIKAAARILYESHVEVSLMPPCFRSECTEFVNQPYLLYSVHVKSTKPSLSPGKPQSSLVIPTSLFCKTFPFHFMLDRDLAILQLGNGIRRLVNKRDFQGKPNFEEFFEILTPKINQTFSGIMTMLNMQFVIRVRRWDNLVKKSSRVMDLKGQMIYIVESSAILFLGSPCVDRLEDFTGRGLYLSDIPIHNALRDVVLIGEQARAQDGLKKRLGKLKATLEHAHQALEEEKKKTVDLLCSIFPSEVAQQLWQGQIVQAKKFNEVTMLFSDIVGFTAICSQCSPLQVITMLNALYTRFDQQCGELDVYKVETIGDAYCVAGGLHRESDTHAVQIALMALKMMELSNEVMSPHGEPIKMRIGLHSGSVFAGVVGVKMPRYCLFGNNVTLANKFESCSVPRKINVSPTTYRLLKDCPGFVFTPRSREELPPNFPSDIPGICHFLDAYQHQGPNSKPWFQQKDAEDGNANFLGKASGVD
# Assay: Cellular assay, VASP phosphorylation in rat aortic smooth muscle cells with ODQ
# Type: cell-based
# Conditions: phospho-VASP signal, primary rat aortic smooth muscle cells, 10 μM ODQ, 30 min incubation; 50% vs. Bmax; read-out: Cell assay pEC50 (converted)
# Procedure: The activity of soluble guanylate cyclase (sGC) was tested in an assay based on measuring phosphorylation of the protein kinase G (PKG) substrate vasodilator-stimulated phosphoprotein (VASP) in rat aortic smooth muscle cells. […] Dimethylsulfoxide (DMSO) vehicle and varying concentrations of the compound to be tested were then added. Following a 30 min incubation at 37° C., media was aspirated and the cells were rinsed with phosphate-buffered saline (PBS) and fixed with 4% formaldehyde in PBS by incubating at room temperature for 20 min. Cells were then washed with PBS and permeabilized for 10 min using 0.1% triton X-100 in PBS. Following PBS rinsing, the cells were blocked for 90 min at room temperature with blocking buffer. The buffer was aspirated and the cells were treated overnight at 4° C. with primary antibody (pSer239-VASP, rabbit polyclonal Ab) diluted 1:500 in blocking buffer. Following three washes with 0.05% Tween 20, the cells were treated for 1 h at room temperature with a fluorescent labeled secondary antibody (IRDye® 800CW Donkey Anti-Rabbit IgG) diluted 1:2500 in blocking buffer with 0.05% Tween 20. Following two washes with PBS, infrared fluorescence was measured using an Odyssey Infrared Imaging System. The activity of a test compound was determined as the pEC50 value which is the concentration able to increase by 50% (vs. Bmax) the phospho-VASP fluorescent signal. Front. Pharmacol., 5 Jul. 2012|doi: 10.3389/fphar.2012.00128, Volume 3 July, 2012, Article number 128.
row,EC50 [nM],Compound
1,1.58,"Cc1cc(OCCCn2cccn2)ccc1CCc1ccc(F)cc1-c1cccc(-n2ncc(C(=O)O)c2C(F)(F)F)n1 [Example 14, 1-(6-(2-(4-(3-(1H-pyrazol-1-yl)propoxy)-2-methylphenethyl)-5-fluorophenyl)pyridin-2-yl)-5-(trifluoromethyl)-1H-pyrazole-4-carboxylic acid]"
2,39.8,"Cc1cc(OCCCn2cc(C#N)cn2)ccc1CCc1ccc(F)cc1-c1cccc(-n2ncc(C(=O)O)c2C(F)(F)F)n1 [Example 15, 1-(6-(2-(4-(3-(4-cyano-1H-pyrazol-1-yl)propoxy)-2-methylphenethyl)-5-fluorophenyl)pyridin-2-yl)-5-(trifluoromethyl)-1H-pyrazole-4-carboxylic acid, sodium salt]"
3,6.31,"COc1cnn(CCCOc2ccc(CCc3ccc(F)cc3-c3cccc(-n4ncc(C(=O)O)c4C(F)(F)F)n3)c(C)c2)c1 [Example 16, 1-(6-(5-Fluoro-2-(4-(3-(4-methoxy-1H-pyrazol-1-yl)propoxy)-2-methylphenethyl)phenyl)pyridin-2-yl)-5-(trifluoromethyl)-1H-pyrazole-4-carboxylic acid, sodium salt]"
4,20,"Cc1cc(OCCCn2cncn2)ccc1CCc1ccc(F)cc1-c1cccc(-n2ncc(C(=O)O)c2C(F)(F)F)n1 [Example 17, 1-(6-(2-(4-(3-(1H-1,2,4-triazol-1-yl)propoxy)-2-methylphenethyl)-5-fluorophenyl)pyridin-2-yl)-5-(trifluoromethyl)-1H-pyrazole-4-carboxylic acid, sodium salt]"
5,7.94,"Cc1cc(OCCCn2ccc(C#N)n2)ccc1CCc1ccc(F)cc1-c1cccc(-n2ncc(C(=O)O)c2C(F)(F)F)n1 [Example 18, 1-(6-(2-(4-(3-(3-cyano-1H-pyrazol-1-yl)propoxy)-2-methylphenethyl)-5-fluorophenyl)pyridin-2-yl)-5-(trifluoromethyl)-1H-pyrazole-4-carboxylic acid, sodium salt]"

row,Compound,EC50 [nM]
1,"Cc1cc(OCCCC(F)(F)F)ccc1CCc1ccc(F)cc1-c1cccc(-n2ncc(C(=O)O)c2C(F)(F)F)n1 [Example 13, 1-(6-(5-Fluoro-2-(2-methyl-4-(4,4,4-trifluorobutoxy)phenethyl)phenyl)pyridin-2-yl)-5-(trifluoromethyl)-1H-pyrazole-4-carboxylic acid]",1.26
2,"CCOC(=O)c1cnn(-c2cccc(-c3ccccc3CCc3ccc(OCCCC(F)(F)F)cc3C)n2)c1C(F)(F)F [Example 19, Ethyl 1-(6-(2-(2-methyl-4-(4,4,4-trifluorobutoxy)phenethyl)phenyl)pyridin-2-yl)-5-(trifluoromethyl)-1H-pyrazole-4-carboxylate]",251
3,"Cc1cc(OCCCC(F)(F)F)ccc1CCc1ccccc1-c1cccc(-n2ncc(C(=O)O)c2C(F)(F)F)n1 [Example 21, 1-(6-(2-(2-methyl-4-(4,4,4-trifluorobutoxy)phenethyl)phenyl)pyridin-2-yl)-5-(trifluoromethyl)-1H-pyrazole-4-carboxylic acid, sodium salt]",7.94
4,"Cc1cc(OCCCC(F)(F)F)ccc1CCc1ccccc1-c1cccc(-n2ncc(C(=O)OC(C)C)c2C(F)(F)F)n1 [Example 22, Isopropyl 1-(6-(2-(2-methyl-4-(4,4,4-trifluorobutoxy)phenethyl)phenyl)pyridin-2-yl)-5-(trifluoromethyl)-1H-pyrazole-4-carboxylate]",1260
